Reference: PubChem BioAssay (NCI)
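Method: 48-hour compound exposure of cells in 96-well plates, five concentrations, linear interpolation of endpoints. GI50 is the concentration that inhibits growth by half. TGI: total growth inhibition.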

Key:
Experiment in all cases: growth of human tumour cells (NCI), 48 h
A498 renal = test system: A498 renal
MCF7 breast = test system: MCF7 breast
NCI-H23 lung = test system: NCI-H23 lung
OVCAR-4 ovarian = test system: OVCAR-4 ovarian
HCT-116 colon = test system: HCT-116 colon
LOX IMVI melanoma = test system: LOX IMVI melanoma
MOLT-4 leukemia = test system: MOLT-4 leukemia
BT-549 breast = test system: BT-549 breast
HCC-2998 colon = test system: HCC-2998 colon
UO-31 renal = test system: UO-31 renal
UACC-62 melanoma = test system: UACC-62 melanoma
RXF 393 renal = test system: RXF 393 renal
NCI-H460 lung = test system: NCI-H460 lung
NCI-H522 lung = test system: NCI-H522 lung
CAKI-1 renal = test system: CAKI-1 renal
OVCAR-3 ovarian = test system: OVCAR-3 ovarian
K-562 leukemia = test system: K-562 leukemia
SF-539 CNS = test system: SF-539 CNS
NCI/ADR-RES ovarian = test system: NCI/ADR-RES ovarian
SK-MEL-2 melanoma = test system: SK-MEL-2 melanoma
HL-60(TB) leukemia = test system: HL-60(TB) leukemia
TK-10 renal = test system: TK-10 renal
HOP-92 NSCLC = test system: HOP-92 NSCLC
A549 NSCLC = test system: A549 NSCLC
MDA-MB-435 = test system: MDA-MB-435
SNB-75 CNS = test system: SNB-75 CNS
SF-295 CNS = test system: SF-295 CNS
T-47D breast = test system: T-47D breast
SK-MEL-5 melanoma = test system: SK-MEL-5 melanoma

With `O=C1/C(=C/c2ccc(O)c(O)c2)COc2ccc(-c3ccccc3)cc21` the TGI (A498 renal) was 7.71 µM, the GI50 (MCF7 breast) was 0.666 µM and the TGI (MCF7 breast) was 5.06 µM. The GI50 (NCI-H23 lung) was 2.28 µM, the TGI (NCI-H23 lung) was 10.9 µM and the GI50 (OVCAR-4 ovarian) was 2.2 µM. For the same compound, the TGI (OVCAR-4 ovarian) was 10.2 µM, the GI50 (HCT-116 colon) was 1.23 µM and the TGI (HCT-116 colon) was 2.65 µM. For the same compound, the GI50 (LOX IMVI melanoma) was 1.43 µM, the TGI (LOX IMVI melanoma) was 2.84 µM and the GI50 (MOLT-4 leukemia) was 0.531 µM. It also gave a TGI (MOLT-4 leukemia) of 4.73 µM, a GI50 (BT-549 breast) of 2.37 µM and a TGI (BT-549 breast) of 10.6 µM. The GI50 (HCC-2998 colon) was 1.49 µM, the TGI (HCC-2998 colon) was 2.98 µM and the GI50 (UO-31 renal) was 1.22 µM. For the same compound, the TGI (UO-31 renal) was 2.93 µM, the GI50 (UACC-62 melanoma) was 2.01 µM and the TGI (UACC-62 melanoma) was 5.78 µM. It also gave a GI50 (RXF 393 renal) of 1.71 µM, a TGI (RXF 393 renal) of 3.86 µM and a GI50 (NCI-H460 lung) of 1.99 µM. The TGI (NCI-H460 lung) was 5.67 µM, the GI50 (NCI-H522 lung) was 0.334 µM and the TGI (NCI-H522 lung) was 1.16 µM. For the same compound, the GI50 (CAKI-1 renal) was 3.66 µM, the TGI (CAKI-1 renal) was 33.2 µM and the GI50 (OVCAR-3 ovarian) was 0.874 µM. It also gave a TGI (OVCAR-3 ovarian) of 3.48 µM, a GI50 (K-562 leukemia) of 1.85 µM and a TGI (K-562 leukemia) of 8.31 µM. The GI50 (SF-539 CNS) was 1.91 µM, the TGI (SF-539 CNS) was 3.89 µM and the GI50 (NCI/ADR-RES ovarian) was 2.24 µM. For the same compound, the TGI (NCI/ADR-RES ovarian) was greater than 26.8 µM, the GI50 (SK-MEL-2 melanoma) was 3.64 µM and the TGI (SK-MEL-2 melanoma) was 10.7 µM. The GI50 (HL-60(TB) leukemia) was 0.435 µM, the TGI (HL-60(TB) leukemia) was 4.47 µM and the GI50 (TK-10 renal) was 1.73 µM. For the same compound, the TGI (TK-10 renal) was 6.91 µM, the GI50 (HOP-92 NSCLC) was 1.74 µM and the TGI (HOP-92 NSCLC) was 8.59 µM. The GI50 (A549 NSCLC) was 3.16 µM, the TGI (A549 NSCLC) was 18.1 µM and the GI50 (MDA-MB-435) was 1.17 µM. It also gave a TGI (MDA-MB-435) of 3.48 µM, a GI50 (SNB-75 CNS) of 2.98 µM and a TGI (SNB-75 CNS) of 11.6 µM. For the same compound, the GI50 (SF-295 CNS) was 2.84 µM, the TGI (SF-295 CNS) was 13 µM and the GI50 (T-47D breast) was 0.959 µM. The TGI (T-47D breast) was 3.61 µM, the GI50 (SK-MEL-5 melanoma) was 1.57 µM and the TGI (SK-MEL-5 melanoma) was 3.77 µM.
